Measured values as given in article PMC7343282, “Tissue Distribution of Several Series of Cationic Surfactants in Rainbow Trout (Oncorhynchus mykiss) Following Exposure via Water” (Environmental Science & Technology, 2020).

Legend:
[1] = system: rainbow trout (Oncorhynchus mykiss); assay: Contribution of tissues to fish body burden; type: in vivo; settings: for Contribution of Blood to the fish's body burden / Contribution of Gills to the fish's body burden / Contribution of Liver to the fish's body burden / Contribution of Mucus to the fish's body burden / Contribution of Other tissue (all apart from blood, liver, gills and skin; muscle concentration assumed) to body burden / Contribution of Skin to the fish's body burden: fraction; for % contribution to body burden, Gills / % contribution to body burden, Mucus / % contribution to body burden, Liver / % contribution to body burden, Skin / % contribution to body burden, Muscle: mean across fish, Figure 1; for % contribution to body burden, Liver / % contribution to body burden, Skin / % contribution to body burden, Muscle: Q10, Q14 maximum estimates; for % contribution to body burden, Muscle: includes all tissues not specifically analyzed
Text: To calculate the quantity of the test chemical in the different tissues, the amount of each tissue in the fish was estimated and multiplied by the concentration in that tissue. The test chemical quantities in the different tissues were then summed to give the body burden in each fish. The total weight of the fish and the weight of the liver and gills were available from the dissection (Table S16). For skin and mucus, the estimated outer surface area of the fish was used. We note that the distinction between mucus and skin is an operational one determined by the extraction method; mucus can be viewed as a more readily extracted fraction of the test chemical residues at the fish surface. The volume of blood was taken as 0.0495 mL g^–1 fish.[30] The remaining tissue (difference between the weight of the whole fish and the weight of liver, gills, skin, and blood) was assumed to have the concentration measured in the muscle. The contribution of the different tissues to the body burden is given for each fish in Table S17, and the average contribution across all fish is plotted in Figure 1. All of the tissues, with the exception of blood, contribute at least 10% of the body burden for at least half of the test chemicals. There is no consistent negative correlation between the fraction of chemical associated with blood, muscle, and liver (tissues where the residue originates entirely from systemic uptake) and alkyl chain length (a measure of hydrophobicity). Thus, although adsorption to fish surfaces appears to play a significant role, its contribution to body burden cannot be simply predicted from surfactant hydrophobicity. In the following, we examine uptake in individual tissues.

[2] = Table S2; cited from earlier work
[3] = Tissue concentrations in rainbow trout after 7 d exposure via water (two mixtures); type: in vivo, Oncorhynchus mykiss; settings: rainbow trout (Oncorhynchus mykiss), in vivo
Description: The study was conducted with rainbow trout (Oncorhynchus mykiss) weighing between 98 and 165 g. The fish were purchased from Nordic trout Sweden AB and held in the aquaria facility prior to the experiment in February 2018. Ethical approval for the experiments was obtained from Stockholms djurförsöksetiska nämnd (decision 9967-2017). The experiments were conducted in 300 L fiberglass aquaria with a water renewal rate of 1.3 L min^–1 (MIX 1) and 1.45 L min^–1 (MIX 2). The water temperature was 10 °C and the pH 7.5. The water hardness was estimated to be 1.1 mM Ca^2+ based on information from the water supplier. The aquaria water was circulated through a filter of polyester wool at 800–1200 L h^–1 with an Eheim 2273 Pro 4+ pump. The outflow from the filter pump was placed above the water surface, providing for aeration. The lighting was dim and programmed on a 12 h light/12 h dark cycle. The fish were fed fish food pellets supplied by the fish farm at 1.0% of their body weight per day.
A solution of the test chemical mixture in methanol was infused continuously (3.5 and 3.8 μL min^–1 for MIX 1 and MIX 2, respectively) into the water inflow using a syringe pump. The intended concentrations of the chemicals in water ranged from 2.5 to 50 μg L^–1 (Table 1). They were selected with the help of modeled estimates of the BCF that were based on reported and extrapolated membrane water partition coefficients[7] and biotransformation rate constants predicted with quantitative structure activity relationships (QSARs)[24],[25] to parameterize the BIONIC model.[26] Based on these estimates, we selected an exposure concentration which would result in concentrations in fish that were clearly above the limit of quantification (LOQ) of the analytical method, while trying to keep the quantifiable exposure concentration as low as possible to minimize the risk of toxic effects and micelle formation (see comparison of intended concentrations with available toxicological data in Table S4).
The surface of the fish posterior of the gills was rinsed with 100% methanol to remove test chemical residues adsorbed to the outer surface of the skin and absorbed in the skin mucus. […] The fish were dissected and the liver, the kidney, the gills, and the remaining contents of the abdominal cavity were taken and weighed. Skin and muscle samples were prepared from the upper dorsal region on semi-frozen fish after the methanol rinse had removed the mucus. The main part of the subcutaneous fat tissue was included in the muscle samples rather than in the skin samples. All samples were stored frozen at −20 °C until further analysis.
For 6 fish from each aquarium and 3 control fish, samples of muscle, skin, liver, and gills were homogenized in a bullet blender (muscle and liver) (MiniG, SPEXsamplePrep) or in a cryo-mill (skin and gill) (Mixer mill cryomill, Retsch GmbH). A sub-sample of 0.5–1.2 g of the homogenate was extracted twice in methanol (4 mL, 50 °C, ultra-sound, 60 min), employing centrifugation at 4000 rpm for phase separation. Further information on the extraction efficiency of this method can be found in the Supporting Information (Table S5 and accompanying text). Isotope labeled standards of Q10 (D21), Q14 (D29), and P16 (D33) were added to a portion of the extract corresponding to 12–75 mg of the sample. The extract volume was adjusted to 3 mL with methanol and then cleaned up on a weak cationic exchange SPE column (WCX, 60 mg, 30 μm particle size, waters). Solvent elution was performed by gravity flow. The column was conditioned with 2 mL of methanol, followed by 2 mL of Milli-Q water adjusted to pH 7 with ammonium hydroxide to activate the ion exchange. The sample extract was loaded onto the column, and it was subsequently rinsed with 20 mL of methanol.

## CCCCCCCCCN [P9, Nonylamine]
[1]; Fish #1
  Contribution of Blood to the fish's body burden: 0.016
  Contribution of Gills to the fish's body burden: 0.36
  Contribution of Liver to the fish's body burden: 0.09
  Contribution of Mucus to the fish's body burden: 0.38
  Contribution of Other tissue (all apart from blood, liver, gills and skin; muscle concentration assumed) to body burden: 0.08
  Contribution of Skin to the fish's body burden: 0.07
[1]; Fish #2
  Contribution of Blood to the fish's body burden: 0.017
  Contribution of Gills to the fish's body burden: 0.26
  Contribution of Liver to the fish's body burden: 0.20
  Contribution of Mucus to the fish's body burden: 0.23
  Contribution of Other tissue (all apart from blood, liver, gills and skin; muscle concentration assumed) to body burden: 0.14
  Contribution of Skin to the fish's body burden: 0.15
[1]; Fish #3
  Contribution of Blood to the fish's body burden: 0.021
  Contribution of Liver to the fish's body burden: 0.17
  Contribution of Mucus to the fish's body burden: 0.20
  Contribution of Other tissue (all apart from blood, liver, gills and skin; muscle concentration assumed) to body burden: 0.14
  Contribution of Skin to the fish's body burden: 0.16
[1]; Fish #4
  Contribution of Blood to the fish's body burden: 0.010
  Contribution of Gills to the fish's body burden: 0.28
  Contribution of Liver to the fish's body burden: 0.19
  Contribution of Mucus to the fish's body burden: 0.28
  Contribution of Other tissue (all apart from blood, liver, gills and skin; muscle concentration assumed) to body burden: 0.12
  Contribution of Skin to the fish's body burden: 0.11
[1]; Fish #5
  Contribution of Blood to the fish's body burden: 0.012
  Contribution of Gills to the fish's body burden: 0.35
  Contribution of Liver to the fish's body burden: 0.08
  Contribution of Mucus to the fish's body burden: 0.36
  Contribution of Other tissue (all apart from blood, liver, gills and skin; muscle concentration assumed) to body burden: 0.12
  Contribution of Skin to the fish's body burden: 0.09
[1]; Fish #6
  Contribution of Blood to the fish's body burden: 0.018
  Contribution of Gills to the fish's body burden: 0.26
  Contribution of Liver to the fish's body burden: 0.08
  Contribution of Mucus to the fish's body burden: 0.35
  Contribution of Other tissue (all apart from blood, liver, gills and skin; muscle concentration assumed) to body burden: 0.10
  Contribution of Skin to the fish's body burden: 0.19
[1]; Mean
  Contribution of Blood to the fish's body burden: 0.016
  Contribution of Gills to the fish's body burden: 0.30
  Contribution of Liver to the fish's body burden: 0.14
  Contribution of Mucus to the fish's body burden: 0.30
  Contribution of Other tissue (all apart from blood, liver, gills and skin; muscle concentration assumed) to body burden: 0.12
  Contribution of Skin to the fish's body burden: 0.13
[1]
  % contribution to body burden, Gills: 30%
  % contribution to body burden, Mucus: 30%
  % contribution to body burden, Liver: 14%
  % contribution to body burden, Skin: 13%
  % contribution to body burden, Muscle: 12%
[2]
  pKa: 10.5
[3]; pH 7.5, Concentration in gills
  concentration at 7 d: 1040 ng/g
[3]; pH 7.5, Concentration in skin
  concentration at 7 d: 70 ng/g

## CCCCCCCCCN(C)C [T9, N,N-dimethylnonylamine]
[1]; Fish #1
  Contribution of Blood to the fish's body burden: 0.045
  Contribution of Gills to the fish's body burden: 0.11
  Contribution of Liver to the fish's body burden: 0.08
  Contribution of Mucus to the fish's body burden: 0.12
  Contribution of Other tissue (all apart from blood, liver, gills and skin; muscle concentration assumed) to body burden: 0.35
  Contribution of Skin to the fish's body burden: 0.30
[1]; Fish #2
  Contribution of Blood to the fish's body burden: 0.059
  Contribution of Gills to the fish's body burden: 0.14
  Contribution of Liver to the fish's body burden: 0.08
  Contribution of Mucus to the fish's body burden: 0.12
  Contribution of Other tissue (all apart from blood, liver, gills and skin; muscle concentration assumed) to body burden: 0.39
  Contribution of Skin to the fish's body burden: 0.22
[1]; Fish #3
  Contribution of Blood to the fish's body burden: 0.075
  Contribution of Liver to the fish's body burden: 0.11
  Contribution of Mucus to the fish's body burden: 0.09
  Contribution of Other tissue (all apart from blood, liver, gills and skin; muscle concentration assumed) to body burden: 0.43
  Contribution of Skin to the fish's body burden: 0.17
[1]; Fish #4
  Contribution of Blood to the fish's body burden: 0.046
  Contribution of Gills to the fish's body burden: 0.15
  Contribution of Liver to the fish's body burden: 0.04
  Contribution of Mucus to the fish's body burden: 0.14
  Contribution of Other tissue (all apart from blood, liver, gills and skin; muscle concentration assumed) to body burden: 0.38
  Contribution of Skin to the fish's body burden: 0.24
[1]; Fish #5
  Contribution of Blood to the fish's body burden: 0.056
  Contribution of Gills to the fish's body burden: 0.14
  Contribution of Liver to the fish's body burden: 0.18
  Contribution of Mucus to the fish's body burden: 0.08
  Contribution of Other tissue (all apart from blood, liver, gills and skin; muscle concentration assumed) to body burden: 0.35
  Contribution of Skin to the fish's body burden: 0.19
[1]; Fish #6
  Contribution of Blood to the fish's body burden: 0.062
  Contribution of Gills to the fish's body burden: 0.11
  Contribution of Liver to the fish's body burden: 0.26
  Contribution of Mucus to the fish's body burden: 0.08
  Contribution of Other tissue (all apart from blood, liver, gills and skin; muscle concentration assumed) to body burden: 0.33
  Contribution of Skin to the fish's body burden: 0.17
[1]; Mean
  Contribution of Blood to the fish's body burden: 0.057
  Contribution of Gills to the fish's body burden: 0.13
  Contribution of Liver to the fish's body burden: 0.13
  Contribution of Mucus to the fish's body burden: 0.10
  Contribution of Other tissue (all apart from blood, liver, gills and skin; muscle concentration assumed) to body burden: 0.37
  Contribution of Skin to the fish's body burden: 0.21
[1]; in vivo
  Share of body burden in interior tissues (blood, liver, and muscle): more than half
[1]
  % contribution to body burden, Gills: 13%
  % contribution to body burden, Mucus: 10%
  % contribution to body burden, Liver: 13%
  % contribution to body burden, Skin: 21%
  % contribution to body burden, Muscle: 37%
[2]
  pKa: 9.5
